Several values for one entry are separate records, joined by “and”; a condition that tells them apart may be missing. Equal entries are not always repeated. Positions of bridges follow the written chain, without caps; N, C: chain ends. Residues, ends and D or L forms follow the SMILES beside them. No end group written: not given here.
Key:
Format in all cases: in vivo
[1] = system: Heliothis virescens; test: Comparative insect bioassay on treated cotton leaves, neonate larvae in minipots; settings: after three days; for corrected % kill: Abbott's formula corrected
Procedure: These were carried out between the synthetic peptide having the sequence depicted as SEQ ID No. 2 (also referred to as the GGK-445 peptide) and the insecticidal peptide obtainable from the fungus Paecilomyces farinosus (referred to as “445”) and described in International Patent Application Publication Number WO01/00841. This protein, having the sequence depicted as SEQ ID No. 41, was synthesised, purified and the N-terminal Glycine was acetylated.
(§1) Prior to the assay, twenty neonate Heliothis virescens larvae were gently brushed into each of three ‘minipot’ containers per treatment (i.e. three replicates per treatment). The peptide to be tested was diluted using sterile, deionised water to create a range of test concentrations for determination of a kill curve.
(§2) Three freshly excised cotton leaves per treatment had 0.05 ml of the appropriate peptide solution applied by pipette to the centre of the axial surface of each leaf. The droplet was then spread over a circular area in excess of the diameter of a minipot with a fine artists paint brush (a fresh paint brush being used for each compound to avoid contamination), the concentrations being applied from lowest to highest. The leaves were left in a fume cupboard just long enough for the surface deposit to dry, but care was taken to avoid excessive leaf wilting.
Once dry the leaves were placed, contaminated surface down over the appropriately labelled, pre-infested minipot and a lid snapped over it. The minipots were placed in plastic trays and placed in a controlled environment room at 25-27° C.
After three days the numbers of live larvae remaining were counted and percent mortality determined. Percent mortality for the peptide treatments was corrected in comparison with the water-treated control using the Abbott's formula. Damage to the leaf was also assessed and represented as percent feeding inhibition.

[2] = system: Heliothis virescens; test: LC50 determination, cotton leaf bioassay as in Example 2; settings: individual test, logit analysis
Procedure: as §1, §2
Once dry the leaves were placed, contaminated surface down over the appropriately labelled, pre-infested minipot and a lid snapped over it. […]
After three days the numbers of live larvae remaining were counted and percent mortality determined. […] Damage to the leaf was also assessed and represented as percent feeding inhibition.
Mean LC50 values were determined for the synthetic peptide, GGK-445, having the amino acid sequence designated in SEQ ID No. 2. […]

[3] = system: Helicoverpa armigera; test: as above
[4] = system: Spodoptera exigua; test: as above; settings: individual test, logit analysis
[5] = system: Spodoptera littoralis; test: as above
[6] = individual test, logit analysis

Row | Compound | % feeding reduction compared to control ([1]; dose 0.15 ppm) [%] | % feeding reduction compared to control ([1]; dose 0.46 ppm) [%] | % feeding reduction compared to control ([1]; dose 1.37 ppm) [%] | % feeding reduction compared to control ([1]; dose 4.12 ppm) [%] | % feeding reduction compared to control ([1]; dose 12.35 ppm) [%] | % feeding reduction compared to control ([1]; dose 37.04 ppm) [%] | % feeding reduction compared to control ([1]; dose 111.11 ppm) [%] | % feeding reduction compared to control ([1]; dose 333.33 ppm) [%] | % feeding reduction compared to control ([1]; dose 1000 ppm) [%] | further results
1 | CC[C@H](C)[C@@H]1NC(=O)[C@@H]2CSSC[C@@H]3NC(=O)[C@H](CCCCN)NC(=O)[C@H](C(C)C)NC(=O)CNC(=O)[C@H](C)NC(=O)[C@@H]4CCCN4C(=O)[C@H]([C@@H](C)O)NC(=O)[C@@H](NC(=O)[C@@H](NC(=O)[C@H](CCCCN)NC(=O)CNC(=O)CN)[C@@H](C)CC)CSSC[C@H](NC(=O)[C@H](CSSC[C@@H](C(=O)N[C@@H](CCCNC(=N)N)C(=O)O)NC(=O)[C@H](C(C)C)NC(=O)[C@H](CCCCN)NC(=O)[C@H](CC(N)=O)NC(=O)[C@H](CC(N)=O)NC(=O)[C@H](C(C)C)NC(=O)CNC(=O)CNC1=O)NC(=O)[C@@H]1CCCN1C(=O)[C@H](CC(C)C)NC(=O)[C@H](C)NC(=O)[C@H](C)NC(=O)[C@@H]1CCCN1C3=O)C(=O)N1CCC[C@H]1C(=O)NCC(=O)N[C@@H](CC(C)C)C(=O)N[C@@H](CCCNC(=N)N)C(=O)N2 [GGK-445] (H-GGKICTPAGVKCPAALPCCPGLRCIGGVNNKVCR-OH; disulfide 5-19, 12-24, 18-33; N-terminus and C-terminus assumed) | 0.0 | 0.0 | 0.0 | 6.4 | 6.4 | 25.1 | 50.1 | 62.5 | 81.3 | LC50 [2]: 171.15 ppm; LC50 [3, 6]: 113.24 ppm and 421.93 ppm; mean LC50 ([3]; mean of individual tests): 657.21 ppm; LC50 [4]: 339.21 ppm and 972.5 ppm and 271.32 ppm; LC50 [5, 6]: 283.26 ppm and 626.72 ppm and 371.71 ppm and 201.91 ppm; mean LC50 ([5]; mean of individual tests): 343.75 ppm
2 | Y1945F - synthesised, acetylated-445: insecticidal peptide obtainable from the fungus Paecilomyces farinosus, described in WO01/00841; SEQ ID No. 41, synthesised, purified, N-terminal Glycine acetylated (Ac-GKICTPAGVKCPAALPCCPGLRCIGGVNNKVCR; cysteine pairing not given here) | 0.0 | 0.0 | 0.0 | 43.8 | 68.8 | 68.8 | 83.8 | 88.8 | 91.3 | corrected % kill ([1]; dose 0.15 ppm): 0.0%; corrected % kill ([1]; dose 0.46 ppm): 5.6%; corrected % kill ([1]; dose 1.37 ppm): 13.0%; corrected % kill ([1]; dose 4.12 ppm): 48.1%; corrected % kill ([1]; dose 12.35 ppm): 75.9%; corrected % kill ([1]; dose 37.04 ppm): 72.2%; corrected % kill ([1]; dose 111.11 ppm): 98.1%; corrected % kill ([1]; dose 333.33 ppm): 98.1%; corrected % kill ([1]; dose 1000 ppm): 100.0%

Reference: patent publication US20040250313A1, “Insecticidal proteins and synergistic combinations thereof” (priority 2001, published 2004)
